What was measured:
Assay in all cases: relative viability (nuclei count vs DMSO), 5 days (fraction); higher = more cells survive
CAL-12T = tested on: CAL-12T
Summary of the method: (§1)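 Each reported value is a median over duplicate plates. It expresses relative viability: treated-well nuclei count divided by vehicle-well nuclei count. Lung cancer cell lines in 1536-well plates were dosed by pin tool a day after seeding, alone with one drug or with a fixed anchor-drug dose plus five library-drug doses (not always all listed) in √10 steps, and nuclei were counted after 5 days.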

NCI-H1650 = tested on: NCI-H1650
Summary of the method: as §1

NCI-H460 = tested on: NCI-H460
Summary of the method: as §1

BEN = tested on: BEN
Summary of the method: as §1

COR-L 105 = tested on: COR-L 105
Summary of the method: as §1

PC-14 = tested on: PC-14
Summary of the method: as §1

NCI-H661 = tested on: NCI-H661
Summary of the method: as §1

LK-2 = tested on: LK-2
Summary of the method: as §1

HCC-366 = tested on: HCC-366
Summary of the method: as §1

NCI-H3122 = tested on: NCI-H3122
Summary of the method: as §1

NCI-H1666 = tested on: NCI-H1666
Summary of the method: as §1

ABC-1 = tested on: ABC-1
Summary of the method: as §1

HARA = tested on: HARA
Summary of the method: as §1

NCI-H727 = tested on: NCI-H727
Summary of the method: as §1

EKVX = tested on: EKVX
Summary of the method: as §1

201T = tested on: 201T
Summary of the method: as §1

NCI-H1437 = tested on: NCI-H1437
Summary of the method: as §1

NCI-H2170 = tested on: NCI-H2170
Summary of the method: as §1

LOU-NH91 = tested on: LOU-NH91
Summary of the method: as §1

NCI-H2009 = tested on: NCI-H2009
Summary of the method: as §1

SW 900 = tested on: SW 900
Summary of the method: as §1

NCI-H441 = tested on: NCI-H441
Summary of the method: as §1

Question: For `Nc1ccn([C@@H]2O[C@H](CO)[C@@H](O)[C@@H]2O)c(=O)n1` [Cytarabine] + CC(=O)c1c(C)c2cnc(Nc3ccc(N4CCNCC4)cn3)nc2n(C2CCCC2)c1=O [Palbociclib] (partner 0.5 µM), which relative viability (CAL-12T; first compound 0.005 µM) is on record?
Answer: 0.341

Question: And the relative viability (CAL-12T; first compound 0.01581 µM)?
Answer: 0.389

Question: What about the relative viability (CAL-12T; first compound 0.05 µM) of the same compound?
Answer: 0.421

Question: What about the relative viability (CAL-12T; first compound 0.1581 µM) of the same compound?
Answer: 0.193

Question: And the relative viability (CAL-12T; first compound 0.5 µM)?
Answer: 0.146

Question: And the relative viability (NCI-H1650; first compound 0.005 µM)?
Answer: 0.317

Question: And the relative viability (NCI-H1650; first compound 0.01581 µM)?
Answer: 0.319

Question: What about the relative viability (NCI-H1650; first compound 0.05 µM) of the same compound?
Answer: 0.318

Question: What about the relative viability (NCI-H1650; first compound 0.1581 µM) of the same compound?
Answer: 0.163

Question: What about the relative viability (NCI-H1650; first compound 0.5 µM) of the same compound?
Answer: 0.186

Question: What about the relative viability (NCI-H460; first compound 0.005 µM) of the same compound?
Answer: 0.156

Question: What about the relative viability (NCI-H460; first compound 0.01581 µM) of the same compound?
Answer: 0.0617

Question: What about the relative viability (NCI-H460; first compound 0.05 µM) of the same compound?
Answer: 0.0499

Question: And the relative viability (NCI-H460; first compound 0.1581 µM)?
Answer: 0.0475

Question: And the relative viability (NCI-H460; first compound 0.5 µM)?
Answer: 0.044

Question: And the relative viability (BEN; first compound 0.005 µM)?
Answer: 0.481

Question: What about the relative viability (BEN; first compound 0.01581 µM) of the same compound?
Answer: 0.431

Question: What about the relative viability (BEN; first compound 0.05 µM) of the same compound?
Answer: 0.458

Question: What about the relative viability (BEN; first compound 0.1581 µM) of the same compound?
Answer: 0.377

Question: And the relative viability (BEN; first compound 0.5 µM)?
Answer: 0.286

Question: And the relative viability (COR-L 105; first compound 0.005 µM)?
Answer: 0.37

Question: What about the relative viability (COR-L 105; first compound 0.01581 µM) of the same compound?
Answer: 0.37

Question: What about the relative viability (COR-L 105; first compound 0.05 µM) of the same compound?
Answer: 0.27

Question: What about the relative viability (COR-L 105; first compound 0.1581 µM) of the same compound?
Answer: 0.351

Question: And the relative viability (COR-L 105; first compound 0.5 µM)?
Answer: 0.324

Question: And the relative viability (PC-14; first compound 0.005 µM)?
Answer: 0.432

Question: What about the relative viability (PC-14; first compound 0.01581 µM) of the same compound?
Answer: 0.366

Question: And the relative viability (PC-14; first compound 0.05 µM)?
Answer: 0.365

Question: What about the relative viability (PC-14; first compound 0.1581 µM) of the same compound?
Answer: 0.0885

Question: What about the relative viability (PC-14; first compound 0.5 µM) of the same compound?
Answer: 0.0651

Question: And the relative viability (NCI-H661; first compound 0.005 µM)?
Answer: 0.429

Question: What about the relative viability (NCI-H661; first compound 0.01581 µM) of the same compound?
Answer: 0.393

Question: And the relative viability (NCI-H661; first compound 0.05 µM)?
Answer: 0.377

Question: And the relative viability (NCI-H661; first compound 0.1581 µM)?
Answer: 0.353

Question: What about the relative viability (NCI-H661; first compound 0.5 µM) of the same compound?
Answer: 0.251

Question: What about the relative viability (LK-2; first compound 0.005 µM) of the same compound?
Answer: 0.634

Question: And the relative viability (LK-2; first compound 0.01581 µM)?
Answer: 0.267

Question: What about the relative viability (LK-2; first compound 0.05 µM) of the same compound?
Answer: 0.233

Question: And the relative viability (LK-2; first compound 0.1581 µM)?
Answer: 0.14

Question: And the relative viability (LK-2; first compound 0.5 µM)?
Answer: 0.107

Question: What about the relative viability (HCC-366; first compound 0.005 µM) of the same compound?
Answer: 0.302

Question: What about the relative viability (HCC-366; first compound 0.01581 µM) of the same compound?
Answer: 0.287

Question: What about the relative viability (HCC-366; first compound 0.05 µM) of the same compound?
Answer: 0.245

Question: And the relative viability (HCC-366; first compound 0.1581 µM)?
Answer: 0.0953

Question: And the relative viability (HCC-366; first compound 0.5 µM)?
Answer: 0.0777

Question: And the relative viability (NCI-H3122; first compound 0.005 µM)?
Answer: 0.188

Question: And the relative viability (NCI-H3122; first compound 0.01581 µM)?
Answer: 0.389

Question: And the relative viability (NCI-H3122; first compound 0.05 µM)?
Answer: 0.122

Question: And the relative viability (NCI-H3122; first compound 0.1581 µM)?
Answer: 0.126

Question: And the relative viability (NCI-H3122; first compound 0.5 µM)?
Answer: 0.113

Question: What about the relative viability (NCI-H1666; first compound 0.005 µM) of the same compound?
Answer: 0.611

Question: And the relative viability (NCI-H1666; first compound 0.01581 µM)?
Answer: 0.573

Question: And the relative viability (NCI-H1666; first compound 0.05 µM)?
Answer: 0.627

Question: And the relative viability (NCI-H1666; first compound 0.1581 µM)?
Answer: 0.511

Question: And the relative viability (NCI-H1666; first compound 0.5 µM)?
Answer: 0.575

Question: And the relative viability (ABC-1; first compound 0.005 µM)?
Answer: 0.49

Question: What about the relative viability (ABC-1; first compound 0.01581 µM) of the same compound?
Answer: 0.736

Question: And the relative viability (ABC-1; first compound 0.05 µM)?
Answer: 0.625

Question: And the relative viability (ABC-1; first compound 0.1581 µM)?
Answer: 0.468

Question: What about the relative viability (ABC-1; first compound 0.5 µM) of the same compound?
Answer: 0.432

Question: And the relative viability (HARA; first compound 0.005 µM)?
Answer: 0.291

Question: What about the relative viability (HARA; first compound 0.01581 µM) of the same compound?
Answer: 0.212

Question: And the relative viability (HARA; first compound 0.05 µM)?
Answer: 0.221

Question: What about the relative viability (HARA; first compound 0.1581 µM) of the same compound?
Answer: 0.158

Question: And the relative viability (HARA; first compound 0.5 µM)?
Answer: 0.163

Question: And the relative viability (NCI-H727; first compound 0.005 µM)?
Answer: 0.613

Question: And the relative viability (NCI-H727; first compound 0.01581 µM)?
Answer: 0.556

Question: And the relative viability (NCI-H727; first compound 0.05 µM)?
Answer: 0.599

Question: And the relative viability (NCI-H727; first compound 0.1581 µM)?
Answer: 0.554

Question: And the relative viability (NCI-H727; first compound 0.5 µM)?
Answer: 0.505

Question: What about the relative viability (EKVX; first compound 0.005 µM) of the same compound?
Answer: 0.366

Question: And the relative viability (EKVX; first compound 0.01581 µM)?
Answer: 0.403

Question: And the relative viability (EKVX; first compound 0.05 µM)?
Answer: 0.296

Question: And the relative viability (EKVX; first compound 0.5 µM)?
Answer: 0.207

Question: And the relative viability (201T; first compound 0.005 µM)?
Answer: 0.369

Question: And the relative viability (201T; first compound 0.01581 µM)?
Answer: 0.335

Question: What about the relative viability (201T; first compound 0.05 µM) of the same compound?
Answer: 0.356

Question: What about the relative viability (201T; first compound 0.1581 µM) of the same compound?
Answer: 0.271

Question: What about the relative viability (201T; first compound 0.5 µM) of the same compound?
Answer: 0.31

Question: What about the relative viability (NCI-H1437; first compound 0.005 µM) of the same compound?
Answer: 0.284

Question: And the relative viability (NCI-H1437; first compound 0.01581 µM)?
Answer: 0.28

Question: And the relative viability (NCI-H1437; first compound 0.05 µM)?
Answer: 0.237

Question: And the relative viability (NCI-H1437; first compound 0.1581 µM)?
Answer: 0.192

Question: What about the relative viability (NCI-H1437; first compound 0.5 µM) of the same compound?
Answer: 0.196

Question: And the relative viability (NCI-H2170; first compound 0.005 µM)?
Answer: 0.369

Question: And the relative viability (NCI-H2170; first compound 0.01581 µM)?
Answer: 0.266

Question: What about the relative viability (NCI-H2170; first compound 0.05 µM) of the same compound?
Answer: 0.26

Question: And the relative viability (NCI-H2170; first compound 0.1581 µM)?
Answer: 0.177

Question: What about the relative viability (NCI-H2170; first compound 0.5 µM) of the same compound?
Answer: 0.186

Question: What about the relative viability (LOU-NH91; first compound 0.005 µM) of the same compound?
Answer: 0.478

Question: And the relative viability (LOU-NH91; first compound 0.01581 µM)?
Answer: 0.54

Question: And the relative viability (LOU-NH91; first compound 0.05 µM)?
Answer: 0.562

Question: What about the relative viability (LOU-NH91; first compound 0.1581 µM) of the same compound?
Answer: 0.432

Question: What about the relative viability (LOU-NH91; first compound 0.5 µM) of the same compound?
Answer: 0.412

Question: What about the relative viability (NCI-H2009; first compound 0.005 µM) of the same compound?
Answer: 0.211

Question: And the relative viability (NCI-H2009; first compound 0.01581 µM)?
Answer: 0.192

Question: And the relative viability (NCI-H2009; first compound 0.05 µM)?
Answer: 0.187

Question: What about the relative viability (NCI-H2009; first compound 0.1581 µM) of the same compound?
Answer: 0.154

Question: What about the relative viability (NCI-H2009; first compound 0.5 µM) of the same compound?
Answer: 0.125

Question: What about the relative viability (SW 900; first compound 0.005 µM) of the same compound?
Answer: 0.536

Question: And the relative viability (SW 900; first compound 0.01581 µM)?
Answer: 0.515

Question: And the relative viability (SW 900; first compound 0.05 µM)?
Answer: 0.451

Question: And the relative viability (SW 900; first compound 0.1581 µM)?
Answer: 0.362

Question: What about the relative viability (SW 900; first compound 0.5 µM) of the same compound?
Answer: 0.292

Question: And the relative viability (NCI-H441; first compound 0.005 µM)?
Answer: 0.198

Question: And the relative viability (NCI-H441; first compound 0.01581 µM)?
Answer: 0.197

Question: What about the relative viability (NCI-H441; first compound 0.05 µM) of the same compound?
Answer: 0.168

Question: And the relative viability (NCI-H441; first compound 0.1581 µM)?
Answer: 0.139

Question: What about the relative viability (NCI-H441; first compound 0.5 µM) of the same compound?
Answer: 0.17
